Laboratory results published in patent US4022895A, “Substituted phenylglycylcephalosporins” (SmithKline Corporation, priority 1975, dated 1977).
Values after ≈ are worked out from the molar mass of the structure shown. Read-outs that look alike come from different tables or passages of the source.

Experiments:
[1] = system: S.aureus SK 23390; assay: In vitro antibacterial activity (MIC); format: cell-based; details: Staphylococcus aureus, SK23390; S.aureus SK 23390, in vitro; read-out: MIC
Protocol: (§1) The compounds of this invention have antibacterial activity against Gram-positive and Gram-negative organisms. Minimum inhibitory concentrations (MIC's) ranged from 0.4 to >200 μg/ml in in vitro testing.

[2] = system: E. coli HH 33779; assay: In vitro antibacterial activity (MIC); format: cell-based; details: Escherichia coli, HH33779; E. coli HH 33779, in vitro; read-out: MIC
Protocol: as §1

[3] = system: Strep. faecalis HH 34358; assay: In vitro antibacterial activity (MIC); format: cell-based; details: Enterococcus faecalis, HH34358; Strep. faecalis HH 34358, in vitro
Protocol: as §1

[4] = system: Entero. aerog. ATCC 13048; assay: In vitro antibacterial activity (MIC); format: cell-based
Protocol: as §1

[5] = system: Shig. paradys HH 112; assay: In vitro antibacterial activity (MIC); format: cell-based; details: Shig. paradys HH 112, in vitro; read-out: MIC
Protocol: as §1

[6] = system: Kleb. pneumo. SK 1200; assay: In vitro antibacterial activity (MIC); format: cell-based
Protocol: as §1

[7] = system: S.aureus HH 127; assay: In vitro antibacterial activity (MIC); format: cell-based; details: Staphylococcus aureus, HH127
Protocol: as §1

[8] = system: S.aureus Villaluz; assay: In vitro antibacterial activity (MIC); format: cell-based; details: Staphylococcus aureus
Protocol: as §1

[9] = system: E.coli SK 12140; assay: In vitro antibacterial activity (MIC); format: cell-based; details: Escherichia coli, SK12140
Protocol: as §1

[10] = system: Kleb. pneumo. SK 4200; assay: In vitro antibacterial activity (MIC); format: cell-based; details: Kleb. pneumo. SK 4200, in vitro; read-out: MIC
Protocol: as §1

[11] = system: Klebs.pneumo. 4200; assay: In vivo activity (ED50) against Klebs.pneumo. 4200; details: read-out: ED50
[12] = system: E.coli 12140; assay: In vivo activity (ED50) against E.coli 12140
[13] = system: Proteus morgani 179; assay: In vitro antibacterial activity (MIC); format: cell-based; details: Proteus morgani 179, in vitro; read-out: MIC
Protocol: as §1

[14] = Entero. aerog. ATCC 13048, in vitro, read-out: MIC
[15] = Kleb. pneumo. SK 1200, in vitro, read-out: MIC
[16] = S.aureus HH 127, in vitro, read-out: MIC
[17] = E.coli SK 12140, in vitro, read-out: MIC
[18] = Escherichia coli, 12140, po, E.coli 12140, p.o.
[19] = Escherichia coli, 12140, sc, E.coli 12140, s.c.

SMILES	MIC [1]	MIC [2]	MIC [3]	MIC [4, 14]	MIC [5]	MIC [6, 15]	MIC [7, 16]	MIC [8]	MIC [9, 17]	MIC [10]	ED50 ([11]; po, Klebs.pneumo. 4200, p.o.)	ED50 ([11]; sc, Klebs.pneumo. 4200, s.c.)	ED50 [12, 18]	ED50 [12, 19]	MIC [13]	MIC [4]	MIC [6]	MIC [7]	MIC [9]
CC1=C(C(=O)O)N2C(=O)C(NC(=O)C(N)c3ccc(OCC(=O)O)cc3)C2SC1 (racemic) [*08016, 7-[DL-α-amino-α-(4'-carboxymethoxyphenyl)acetamido]-3-desacetoxycephalosporanic acid]	50 µg/mL (≈ 119 µM)	50 µg/mL (≈ 119 µM)	> 200 µg/mL	100 µg/mL (≈ 237 µM)	50 µg/mL (≈ 119 µM)	25 µg/mL (≈ 59.3 µM)	50 µg/mL (≈ 119 µM)	> 200 µg/mL	50 µg/mL (≈ 119 µM)										
CC1=C(C(=O)O)N2C(=O)C(NC(=O)[C@H](N)c3ccc(OCC(N)=O)cc3)C2SC1 (stereo partly drawn) [Compound No. 00036, 7-[D-α-Amino-α-(4'-carbamylmethoxyphenyl)acetamido]-3-desacetoxycephalosporanic acid]	3.1 µg/mL (≈ 7.37 µM)	50 µg/mL (≈ 119 µM)	50 µg/mL (≈ 119 µM)	100 µg/mL (≈ 238 µM)	12.5 µg/mL (≈ 29.7 µM)	25 µg/mL (≈ 59.5 µM)	3.1 µg/mL (≈ 7.37 µM)	200 µg/mL (≈ 476 µM)	25 µg/mL (≈ 59.5 µM)	25 µg/mL (≈ 59.5 µM)									
N[C@@H](C(=O)NC1C(=O)N2C(C(=O)O)=C(CSc3c[nH]nn3)CSC12)c1ccc(OCC(=O)O)cc1 (stereo partly drawn) [Compound No. 03326, 7-[D-α-Amino-α-(4'-carboxymethoxyphenyl)acetamido]-3-(1,2,3-triazol-4-ylthiomethyl)-3-cephem-4-carboxylic acid]	100 µg/mL (≈ 192 µM)	25 µg/mL (≈ 48 µM)	200 µg/mL (≈ 384 µM)	25 µg/mL (≈ 48 µM)		3.1 µg/mL (≈ 5.96 µM)	12.5 µg/mL (≈ 24 µM)	200 µg/mL (≈ 384 µM)	6.3 µg/mL (≈ 12.1 µM)	6.3 µg/mL (≈ 12.1 µM)	17.7 mg/kg	4.6 mg/kg	25 mg/kg	8.4 mg/kg	200 µg/mL (≈ 384 µM)				
Cc1nnc(SCC2=C(C(=O)O)N3C(=O)C(NC(=O)[C@H](N)c4ccc(SCC(=O)O)cc4)C3SC2)s1 (stereo partly drawn) [Compound No. 03616, 7-[D-α-Amino-α-(4'-carboxymethylthiophenyl)acetamido]-3-(5-methyl-1,3,4-thiadiazol-2-ylthiomethyl)-3-cephem-4-carboxylic acid]	6.3 µg/mL (≈ 11.1 µM)	12.5 µg/mL (≈ 22 µM)	100 µg/mL (≈ 176 µM)	25 µg/mL (≈ 44 µM)		3.1 µg/mL (≈ 5.46 µM)	6.3 µg/mL (≈ 11.1 µM)	25 µg/mL (≈ 44 µM)	6.3 µg/mL (≈ 11.1 µM)	1.6 µg/mL (≈ 2.82 µM)	16 mg/kg	11.5 mg/kg	14.5 mg/kg	6.2 mg/kg	200 µg/mL (≈ 352 µM)				
N[C@@H](C(=O)NC1C(=O)N2C(C(=O)O)=C(CSc3c[nH]nn3)CSC12)c1ccc(SCC(=O)O)cc1 (stereo partly drawn) [Compound No. 04726, 7-[D-α-Amino-α-(4'-carboxymethylthiophenyl)-acetamido]-3-(1,2,3,-triazol-4-ylthiomethyl)-3-cephem-4-carboxylic acid]	12.5 µg/mL (≈ 23.3 µM)	12.5 µg/mL (≈ 23.3 µM)	200 µg/mL (≈ 373 µM)	25 µg/mL (≈ 46.6 µM)	6.3 µg/mL (≈ 11.7 µM)	3.1 µg/mL (≈ 5.78 µM)	12.5 µg/mL (≈ 23.3 µM)	100 µg/mL (≈ 186 µM)	25 µg/mL (≈ 46.6 µM)	3.1 µg/mL (≈ 5.78 µM)	14.5 mg/kg	9.5 mg/kg	46 mg/kg	12.5 mg/kg					
Cn1nnnc1SCC1=C(C(=O)O)N2C(=O)C(NC(=O)[C@H](N)c3ccc(OCC(N)=O)cc3)C2SC1 (stereo partly drawn) [Compound No. 32626, 7-[D-α-Amino-α-(4'-carbamylmethoxyphenyl)acetamido]-3-(1-methyl-1,2,3,4-tetrazol-5-ylthiomethyl)-3-cephem-4-carboxylic acid]	6.3 µg/mL (≈ 11.8 µM)	25 µg/mL (≈ 46.8 µM)	200 µg/mL (≈ 374 µM)					50 µg/mL (≈ 93.5 µM)		6.3 µg/mL (≈ 11.8 µM)	> 50 mg/kg	15.5 mg/kg	> 50 mg/kg	8.7 mg/kg	100 µg/mL (≈ 187 µM)	12.5 µg/mL (≈ 23.4 µM)	12.5 µg/mL (≈ 23.4 µM)	12.5 µg/mL (≈ 23.4 µM)	12.5 µg/mL (≈ 23.4 µM)
Cc1nnc(SCC2=C(C(=O)O)N3C(=O)C(NC(=O)[C@H](N)c4ccc(NCC(=O)O)cc4)C3SC2)s1 (stereo partly drawn) [Compound No. 48536, 7-[D-α-Amino-α-(4'-carboxymethylaminophenyl)acetamido]-3-(5-methyl-1,3,4-thiadiazol-2-ylthiomethyl)-3-cephem-4-carboxylic acid]	12.5 µg/mL (≈ 22.7 µM)	6.3 µg/mL (≈ 11.4 µM)	100 µg/mL (≈ 182 µM)	12.5 µg/mL (≈ 22.7 µM)		3.1 µg/mL (≈ 5.63 µM)	12.5 µg/mL (≈ 22.7 µM)	100 µg/mL (≈ 182 µM)	3.1 µg/mL (≈ 5.63 µM)	1.6 µg/mL (≈ 2.91 µM)	12.5 mg/kg	7.8 mg/kg	6.4 mg/kg	2 mg/kg	2.5 µg/mL (≈ 4.54 µM)				
